Assays:
[1] = target: Serine/threonine-protein kinase Chk1 (Homo sapiens, UniProt O14757); assay: Binding affinity to recombinant human full-length N-terminal His-tagged CHEK1 expressed in baculovirus expression system using CHKtide as substrate incubated for 1 hr by TR-FRET assay
CDK2/Cyclin A2 = CDK2/Cyclin A2 (Homo sapiens, UniProt P24941); assay: Binding affinity to recombinant human full-length N-terminal GST-tagged CDK2/cyclin A2 expressed in baculovirus expression system using modified Histone H1 as substrate incubated for 1 hr by TR-FRET assay
[2] = target: Tyrosine-protein kinase ABL1 (Homo sapiens, UniProt P00519); assay: Binding affinity to recombinant human full-length N-terminal His-tagged ABL1 expressed in baculovirus expression system incubated for 1 hr by TR-FRET assay
[3] = target: Tyrosine-protein kinase JAK2 (Homo sapiens, UniProt O60674); assay: Binding affinity to recombinant N-terminal His-FLAG-GST-tagged JAK2 (unknown origin) (826 to 1132 residues) expressed in baculovirus infected Sf9 insect cells incubated for 1 hr by TR-FRET assay
[4] = target: Serine/threonine-protein kinase pim-3 (Homo sapiens, UniProt Q86V86); assay: Binding affinity to recombinant human full-length N-terminal GST-tagged PIM3 expressed in baculovirus expression system using S6K2 peptide as substrate incubated for 1 hr by TR-FRET assay
[5] = target: Serine/threonine-protein kinase Chk2 (Homo sapiens, UniProt O96017); assay: Binding affinity to recombinant full-length N-terminal His-FLAG-GST-tagged CHEK2 (unknown origin) expressed in baculovirus infected Sf9 insect cells incubated for 1 hr by TR-FRET assay
Ephrin type-A receptor 4 = Ephrin type-A receptor 4 (Homo sapiens, UniProt P54764); assay: Binding affinity to recombinant N-terminal His-FLAG-GST-tagged EPHA4 (unknown origin) (586 to 986 residues) expressed in baculovirus infected Sf9 insect cells incubated for 1 hr by TR-FRET assay
[6] = target: Serine/threonine-protein kinase MRCK gamma (Homo sapiens, UniProt Q6DT37); assay: Binding affinity to recombinant full-length N-terminal His-FLAG-GST-tagged DMPK2 (unknown origin) expressed in baculovirus infected Sf9 insect cells incubated for 1 hr by TR-FRET assay
[7] = target: MAP/microtubule affinity-regulating kinase 4 (Homo sapiens, UniProt Q96L34); assay: Binding affinity to recombinant full-length N-terminal His-FLAG-tagged MARK4 (unknown origin) expressed in baculovirus infected Sf9 insect cells incubated for 1 hr by TR-FRET assay
[8] = target: Tyrosine-protein kinase ZAP-70 (Homo sapiens, UniProt P43403); assay: Binding affinity to recombinant full-length N-terminal His-FLAG-GST-tagged ZAP70 (unknown origin) expressed in baculovirus infected Sf9 insect cells incubated for 1 hr by TR-FRET assay
Ephrin type-A receptor 3 = Ephrin type-A receptor 3 (Homo sapiens, UniProt P29320); assay: Binding affinity to recombinant N-terminal His-FLAG-GST-tagged EPHA3 (unknown origin) (579 to 983 residues) expressed in baculovirus infected Sf9 insect cells incubated for 1 hr by TR-FRET assay
[9] = target: cAMP-dependent protein kinase catalytic subunit PRKX (Homo sapiens, UniProt P51817); assay: Binding affinity to recombinant full-length N-terminal His-FLAG-GST-tagged PRKX (unknown origin) expressed in baculovirus infected Sf9 insect cells incubated for 1 hr by TR-FRET assay
Ephrin type-B receptor 2 = Ephrin type-B receptor 2 (Homo sapiens, UniProt P29323); assay: Binding affinity to recombinant N-terminal His-FLAG-GST-tagged EPHB2 (unknown origin) (581 to 986 residues) expressed in baculovirus infected Sf9 insect cells incubated for 1 hr by TR-FRET assay
[10] = target: Serine/threonine-protein kinase pim-2 (Homo sapiens, UniProt Q9P1W9); assay: Binding affinity to recombinant human full-length N-terminal GST-tagged PIM2 expressed in baculovirus expression system using S6K2 peptide as substrate incubated for 1 hr by TR-FRET assay
[11] = target: Cyclin-dependent kinase 5/CDK5 activator 1 (Homo sapiens, UniProt Q00535); assay: Binding affinity to recombinant human full-length N-terminal GST-tagged CDK5 (1 to 292 residues)/N-terminal His6-tagged p25 (99 to 307 residues) expressed in baculovirus expression system using modified histone H1 as substrate incubated for 1 hr by TR-FRET assay
[12] = target: Dual specificity mitogen-activated protein kinase kinase 7 (Homo sapiens, UniProt O14733); assay: Binding affinity to recombinant human full-length N-terminal GST-tagged MAP2K7 (1 to 419 residues) expressed in baculovirus expression system using JNK2 as substrate incubated for 1 hr by TR-FRET assay
Ephrin type-B receptor 4 = Ephrin type-B receptor 4 (Homo sapiens, UniProt P54760); assay: Binding affinity to recombinant N-terminal His-FLAG-GST-tagged EPHB4 (unknown origin) (577 to 987 residues) expressed in baculovirus infected Sf9 insect cells incubated for 1 hr by TR-FRET assay
[13] = target: Proto-oncogene tyrosine-protein kinase ROS (Homo sapiens, UniProt P08922); assay: Binding affinity to recombinant N-terminal His-FLAG-tagged ROS1 (unknown origin) (1883 to 2347 residues) expressed in baculovirus infected Sf9 insect cells incubated for 1 hr by TR-FRET assay
[14] = target: Tyrosine-protein kinase TXK (Homo sapiens, UniProt P42681); assay: Binding affinity to recombinant human N-terminal GST-tagged TXK (260 to 527 residues) expressed in baculovirus expression system using srctide as substrate incubated for 1 hr by TR-FRET assay
[15] = target: Serine/threonine-protein kinase SIK3 (Homo sapiens, UniProt Q9Y2K2); assay: Binding affinity to recombinant N-terminal His-FLAG-GST-tagged SIK3 (unknown origin) (59 to 365 residues) expressed in baculovirus infected Sf9 insect cells incubated for 1 hr by TR-FRET assay
Ephrin type-B receptor 6 = Ephrin type-B receptor 6 (Homo sapiens, UniProt O15197); assay: Binding affinity to recombinant N-terminal His-FLAG-GST-tagged EPHB6 (unknown origin) (683 to 1130 residues) expressed in baculovirus infected Sf9 insect cells incubated for 1 hr by TR-FRET assay
Ephrin type-A receptor 8 = Ephrin type-A receptor 8 (Homo sapiens, UniProt P29322); assay: Binding affinity to recombinant N-terminal His-FLAG-GST-tagged […] (unknown origin) (571 to 924 residues) expressed in baculovirus infected Sf9 insect cells incubated for 1 hr by TR-FRET assay
[16] = target: Mitogen-activated protein kinase 9 (Homo sapiens, UniProt P45984); assay: Binding affinity to recombinant full-length N-terminal His-FLAG-tagged MAPK9 (unknown origin) expressed in baculovirus infected Sf9 insect cells incubated for 1 hr by TR-FRET assay
[17] = target: Homeodomain-interacting protein kinase 2 (Homo sapiens, UniProt Q9H2X6); assay: Binding affinity to recombinant full-length N-terminal His-FLAG-tagged HIPK2 (unknown origin) expressed in baculovirus infected Sf9 insect cells incubated for 1 hr by TR-FRET assay

Sequence of cAMP-dependent protein kinase catalytic subunit PRKX (P51817 whole entry, the tested form may be a part): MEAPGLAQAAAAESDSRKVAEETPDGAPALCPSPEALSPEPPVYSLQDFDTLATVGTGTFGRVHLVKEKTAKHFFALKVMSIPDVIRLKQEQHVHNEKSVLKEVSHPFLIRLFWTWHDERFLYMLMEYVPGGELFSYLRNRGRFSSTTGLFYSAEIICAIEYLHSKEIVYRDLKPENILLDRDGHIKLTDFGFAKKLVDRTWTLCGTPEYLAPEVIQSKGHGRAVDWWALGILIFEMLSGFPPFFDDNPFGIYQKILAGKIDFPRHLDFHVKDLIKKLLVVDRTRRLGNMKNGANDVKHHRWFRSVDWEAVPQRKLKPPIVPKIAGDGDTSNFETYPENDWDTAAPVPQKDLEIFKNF
Sequence of Tyrosine-protein kinase TXK (P42681 whole entry, the tested form may be a part): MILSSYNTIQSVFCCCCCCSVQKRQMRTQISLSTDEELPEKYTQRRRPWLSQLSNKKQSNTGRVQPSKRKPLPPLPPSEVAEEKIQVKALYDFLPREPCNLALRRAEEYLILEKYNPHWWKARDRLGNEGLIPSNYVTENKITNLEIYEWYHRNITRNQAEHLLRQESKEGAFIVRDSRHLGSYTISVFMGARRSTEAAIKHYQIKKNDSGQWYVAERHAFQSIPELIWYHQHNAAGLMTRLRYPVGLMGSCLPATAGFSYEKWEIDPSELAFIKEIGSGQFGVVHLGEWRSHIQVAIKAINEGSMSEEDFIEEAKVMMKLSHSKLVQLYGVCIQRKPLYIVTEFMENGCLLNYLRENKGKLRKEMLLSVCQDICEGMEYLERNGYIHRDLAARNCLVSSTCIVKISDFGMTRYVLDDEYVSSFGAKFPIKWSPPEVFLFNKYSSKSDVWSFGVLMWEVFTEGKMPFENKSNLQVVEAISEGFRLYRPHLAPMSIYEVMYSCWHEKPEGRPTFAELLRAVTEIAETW
Sequence of Dual specificity mitogen-activated protein kinase kinase 7 (O14733 whole entry, the tested form may be a part): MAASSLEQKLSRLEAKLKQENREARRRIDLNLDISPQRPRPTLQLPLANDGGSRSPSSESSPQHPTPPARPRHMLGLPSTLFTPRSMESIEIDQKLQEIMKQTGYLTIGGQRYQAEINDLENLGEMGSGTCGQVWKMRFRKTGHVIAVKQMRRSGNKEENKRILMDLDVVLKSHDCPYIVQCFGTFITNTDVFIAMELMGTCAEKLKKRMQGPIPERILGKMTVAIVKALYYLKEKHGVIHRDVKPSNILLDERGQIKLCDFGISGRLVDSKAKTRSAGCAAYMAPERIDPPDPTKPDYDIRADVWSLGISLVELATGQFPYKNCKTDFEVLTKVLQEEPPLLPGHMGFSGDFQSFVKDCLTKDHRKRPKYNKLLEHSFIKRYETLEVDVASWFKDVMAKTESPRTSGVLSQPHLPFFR
Sequence of Mitogen-activated protein kinase 9 (P45984 whole entry): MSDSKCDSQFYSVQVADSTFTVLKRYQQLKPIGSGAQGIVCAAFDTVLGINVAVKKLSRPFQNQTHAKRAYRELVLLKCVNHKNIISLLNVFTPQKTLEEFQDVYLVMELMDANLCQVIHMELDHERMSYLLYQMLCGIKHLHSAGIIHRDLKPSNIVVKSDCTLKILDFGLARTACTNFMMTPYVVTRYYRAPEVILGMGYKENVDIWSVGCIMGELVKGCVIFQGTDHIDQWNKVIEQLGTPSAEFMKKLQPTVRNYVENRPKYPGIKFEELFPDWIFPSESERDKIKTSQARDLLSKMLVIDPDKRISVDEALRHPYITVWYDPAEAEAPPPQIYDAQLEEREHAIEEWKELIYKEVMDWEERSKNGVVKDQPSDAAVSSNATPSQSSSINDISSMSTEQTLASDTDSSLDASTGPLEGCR
Sequence of MAP/microtubule affinity-regulating kinase 4 (Q96L34 whole entry): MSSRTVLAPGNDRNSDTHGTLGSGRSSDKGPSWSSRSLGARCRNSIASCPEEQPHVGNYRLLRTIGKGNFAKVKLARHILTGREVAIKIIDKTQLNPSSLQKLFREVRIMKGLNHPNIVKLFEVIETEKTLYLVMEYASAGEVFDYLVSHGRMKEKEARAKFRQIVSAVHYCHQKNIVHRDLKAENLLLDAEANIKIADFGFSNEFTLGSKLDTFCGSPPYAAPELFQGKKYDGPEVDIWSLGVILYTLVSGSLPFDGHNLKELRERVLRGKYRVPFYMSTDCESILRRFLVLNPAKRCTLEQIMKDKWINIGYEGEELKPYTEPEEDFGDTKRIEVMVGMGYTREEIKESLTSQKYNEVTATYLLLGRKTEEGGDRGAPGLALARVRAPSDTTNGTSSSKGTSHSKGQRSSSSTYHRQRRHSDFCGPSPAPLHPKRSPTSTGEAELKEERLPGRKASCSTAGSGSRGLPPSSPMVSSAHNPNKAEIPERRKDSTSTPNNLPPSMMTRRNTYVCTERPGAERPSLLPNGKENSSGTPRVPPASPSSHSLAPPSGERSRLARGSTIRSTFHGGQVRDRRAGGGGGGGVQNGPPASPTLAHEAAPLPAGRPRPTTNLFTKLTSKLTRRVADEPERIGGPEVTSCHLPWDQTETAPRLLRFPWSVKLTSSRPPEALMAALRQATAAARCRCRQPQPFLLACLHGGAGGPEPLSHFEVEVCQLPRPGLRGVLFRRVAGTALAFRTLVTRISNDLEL
Sequence of Serine/threonine-protein kinase SIK3 (Q9Y2K2 whole entry, the tested form may be a part): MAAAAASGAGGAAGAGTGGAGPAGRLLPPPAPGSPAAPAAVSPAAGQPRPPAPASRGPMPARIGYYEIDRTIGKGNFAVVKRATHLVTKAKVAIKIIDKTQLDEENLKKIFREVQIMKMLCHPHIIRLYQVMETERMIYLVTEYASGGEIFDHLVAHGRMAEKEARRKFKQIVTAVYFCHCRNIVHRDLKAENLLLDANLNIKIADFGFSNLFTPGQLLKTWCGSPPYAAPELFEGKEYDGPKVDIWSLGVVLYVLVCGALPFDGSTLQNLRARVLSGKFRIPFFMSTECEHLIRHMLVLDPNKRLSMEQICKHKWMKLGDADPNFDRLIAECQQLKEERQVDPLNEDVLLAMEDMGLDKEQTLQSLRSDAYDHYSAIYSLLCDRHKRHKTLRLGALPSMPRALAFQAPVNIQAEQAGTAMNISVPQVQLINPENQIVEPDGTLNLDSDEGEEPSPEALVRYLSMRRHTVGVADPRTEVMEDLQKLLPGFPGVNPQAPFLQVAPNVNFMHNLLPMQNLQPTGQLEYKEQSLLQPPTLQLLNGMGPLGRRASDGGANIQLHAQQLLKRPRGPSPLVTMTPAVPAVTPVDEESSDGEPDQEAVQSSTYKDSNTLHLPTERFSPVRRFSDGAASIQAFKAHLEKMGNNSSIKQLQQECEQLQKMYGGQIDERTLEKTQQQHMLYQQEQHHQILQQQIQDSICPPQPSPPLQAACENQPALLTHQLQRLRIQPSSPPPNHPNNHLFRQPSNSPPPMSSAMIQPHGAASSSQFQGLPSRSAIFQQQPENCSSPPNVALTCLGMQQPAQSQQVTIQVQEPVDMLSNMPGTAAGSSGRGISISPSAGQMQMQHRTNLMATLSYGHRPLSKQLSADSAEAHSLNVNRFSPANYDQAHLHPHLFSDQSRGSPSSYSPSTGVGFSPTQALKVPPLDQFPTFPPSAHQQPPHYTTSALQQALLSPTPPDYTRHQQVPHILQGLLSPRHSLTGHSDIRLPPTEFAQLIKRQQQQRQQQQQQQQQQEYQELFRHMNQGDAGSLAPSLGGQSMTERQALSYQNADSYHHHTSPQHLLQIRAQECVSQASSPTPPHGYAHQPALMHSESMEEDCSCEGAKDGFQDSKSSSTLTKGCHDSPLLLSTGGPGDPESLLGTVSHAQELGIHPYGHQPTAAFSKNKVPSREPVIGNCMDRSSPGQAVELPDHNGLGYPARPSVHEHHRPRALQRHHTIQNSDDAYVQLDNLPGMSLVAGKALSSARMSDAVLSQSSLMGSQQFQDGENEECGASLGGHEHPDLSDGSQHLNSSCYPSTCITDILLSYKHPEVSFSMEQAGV
Sequence of Ephrin type-B receptor 6 (O15197 whole entry, the tested form may be a part): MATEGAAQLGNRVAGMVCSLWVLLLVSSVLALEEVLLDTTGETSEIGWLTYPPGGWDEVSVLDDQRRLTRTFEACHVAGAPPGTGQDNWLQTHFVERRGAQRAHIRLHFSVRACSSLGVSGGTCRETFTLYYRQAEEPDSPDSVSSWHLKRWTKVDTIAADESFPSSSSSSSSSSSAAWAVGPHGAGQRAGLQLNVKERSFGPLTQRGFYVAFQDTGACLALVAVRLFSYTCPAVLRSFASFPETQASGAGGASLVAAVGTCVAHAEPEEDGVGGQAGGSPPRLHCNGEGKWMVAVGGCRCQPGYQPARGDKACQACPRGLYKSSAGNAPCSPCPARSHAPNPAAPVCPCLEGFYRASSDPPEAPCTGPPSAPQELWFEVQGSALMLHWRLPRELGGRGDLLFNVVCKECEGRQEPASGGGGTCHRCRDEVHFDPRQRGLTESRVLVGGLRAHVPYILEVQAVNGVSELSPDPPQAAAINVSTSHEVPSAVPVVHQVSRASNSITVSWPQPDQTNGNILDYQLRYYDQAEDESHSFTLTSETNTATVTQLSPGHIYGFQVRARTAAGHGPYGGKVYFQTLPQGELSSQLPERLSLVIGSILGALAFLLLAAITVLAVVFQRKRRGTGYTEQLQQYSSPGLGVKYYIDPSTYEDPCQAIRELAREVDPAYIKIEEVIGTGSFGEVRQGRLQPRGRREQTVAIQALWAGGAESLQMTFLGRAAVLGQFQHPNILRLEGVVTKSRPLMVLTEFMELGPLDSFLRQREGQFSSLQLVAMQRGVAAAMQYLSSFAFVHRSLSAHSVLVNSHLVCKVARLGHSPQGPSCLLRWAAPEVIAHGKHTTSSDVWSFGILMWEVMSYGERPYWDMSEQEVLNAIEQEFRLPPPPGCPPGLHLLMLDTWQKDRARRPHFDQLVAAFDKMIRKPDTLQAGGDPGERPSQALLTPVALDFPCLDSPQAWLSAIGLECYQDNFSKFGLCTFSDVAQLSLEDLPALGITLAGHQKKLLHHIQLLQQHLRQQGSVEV

## CO[C@@H]1[C@H](NCCOCCOCCOCCNC(=O)CCC2=[N+]3C(=Cc4c(C)cc(C)n4[B-]3(F)F)C=C2)C[C@H]2O[C@]1(C)n1c3ccccc3c3c4c(c5c6ccccc6n2c5c31)C(=O)NC4
[1]
  Kd: 20 nM
CDK2/Cyclin A2
  Kd: 94 nM
[2]
  Kd: 918 nM
[3]
  Kd: 14 nM
[4]
  Kd: 4 nM
[5]
  Kd: 147 nM
Ephrin type-A receptor 4
  Kd: 1100 nM
[6]
  Kd: 7 nM
[7]
  Kd: 6 nM
[8]
  Kd: 109 nM
Ephrin type-A receptor 3
  Kd: 747 nM
[9]
  Kd: 43 nM
Ephrin type-B receptor 2
  Kd: 985 nM
[10]
  Kd: 15 nM
[11]
  Kd: 87 nM
[12]
  Kd: 293 nM
Ephrin type-B receptor 4
  Kd: 1800 nM
[13]
  Kd: 238 nM
[14]
  Kd: 1010 nM
[15]
  Kd: 10 nM
Ephrin type-B receptor 6
  Kd: 570 nM
Ephrin type-A receptor 8
  Kd: 1560 nM

## CO[C@@H]1[C@H](N(C)CCOCCOCCOCCNC(=O)CCC2=[N+]3C(=Cc4c(C)cc(C)n4[B-]3(F)F)C=C2)C[C@H]2O[C@]1(C)n1c3ccccc3c3c4c(c5c6ccccc6n2c5c31)C(=O)NC4
[16]
  Kd: 745 nM
[17]
  Kd: 559 nM
